The results in this text go back to patent US11746100B2 (GLOBAL BLOOD THERAPEUTICS, INC., priority 2020, dated 2023).

This assay has as its target T1, human ferroportin (Homo sapiens, UniProt Q9NP59).
T1 construct: luciferase reporter (read with the Nano-Glo Luciferase Assay System); expressed in transfected cells; host or cells: CHO cells, stably transfected, expression induced with doxycycline
T1 sequence (Q9NP59 1-571): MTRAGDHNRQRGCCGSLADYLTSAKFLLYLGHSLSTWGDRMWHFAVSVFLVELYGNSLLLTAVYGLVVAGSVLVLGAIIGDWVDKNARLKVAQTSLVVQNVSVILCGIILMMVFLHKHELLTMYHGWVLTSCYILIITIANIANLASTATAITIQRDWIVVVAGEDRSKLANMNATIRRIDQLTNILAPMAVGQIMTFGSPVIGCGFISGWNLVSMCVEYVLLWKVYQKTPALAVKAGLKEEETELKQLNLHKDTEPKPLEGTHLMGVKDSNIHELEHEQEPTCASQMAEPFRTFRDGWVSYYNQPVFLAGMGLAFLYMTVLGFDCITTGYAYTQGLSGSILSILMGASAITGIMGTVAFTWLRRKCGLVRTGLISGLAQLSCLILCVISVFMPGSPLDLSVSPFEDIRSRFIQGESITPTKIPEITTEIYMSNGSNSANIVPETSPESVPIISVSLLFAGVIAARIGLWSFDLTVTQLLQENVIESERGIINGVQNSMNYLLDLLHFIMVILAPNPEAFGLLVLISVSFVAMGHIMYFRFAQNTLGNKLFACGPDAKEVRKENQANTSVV
The assay is described as follows: Biological in-vitro ferroportin internalization assay (luciferase reporter). Type of assay: cell-based. The following applies: average pEC50; stably-transfected CHO cell line expressing human ferroportin tagged to a luciferase reporter; 6 h incubation with test compound. Put shortly: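 Read-out is Nano-Glo luciferase signal after 6 h compound exposure, with average pEC50 derived. Cells are a stable CHO line carrying luciferase-tagged human ferroportin, pre-loaded 24 h with ferric ammonium citrate and doxycycline-induced for 24 h.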
On the technique in general: A reporter such as luciferase makes a cellular process visible.
Regarding `c1nc(-c2nc3c(c(N4CCCCCC4)n2)CCC3)cs1` [Compound 94, 1-[2-(1,3-thiazol-4-yl)-5H,6H,7H-cyclopenta[d]pyrimidin-4-yl]azepane], the pEC50 (as a rule, −log10 of the EC50, conventionally taken in molar units) is listed as 6.3.

As for `COc1ccnc(-c2nc3c(c(N(C)CC(=O)NCCN(C)C)n2)CCC3)c1` [Compound 476, N-[2-(dimethylamino)ethyl]-2-{[2-(4-methoxypyridin-2-yl)-5H,6H,7H-cyclopenta[d]pyrimidin-4-yl](methyl)amino}acetamide], the pEC50 is 6.7.

`CN(c1nc(-c2ccccn2)nc2c1CCC2)[C@H]1CCN(c2ccc(F)cc2)C1=O` [Compound 206, (3S)-1-(4-fluorophenyl)-3-{methyl[2-(pyridin-2-yl)-5H,6H,7H-cyclopenta[d]pyrimidin-4-yl]amino}pyrrolidin-2-one]: the pEC50 came out at 6.9.

For `C[C@H](O)COc1ccnc(-c2nc3c(c(N(C)CC(=O)NC4(C)CCC4)n2)CCC3)c1` [Compound 378, 2-[(2-{4-[(2S)-2-hydroxypropoxy]pyridin-2-yl}-5H,6H,7H-cyclopenta[d]pyrimidin-4-yl)(methyl)amino]-N-(1-methylcyclobutyl)acetamide], the negative logarithm of the EC50 (pEC50) was 8.

Regarding `COc1ccc(NC(=O)CN(C)c2nc(-c3cc(OCCO)ccn3)nc3c2C(C)(C)CC3)cn1` [Compound 363, 2-({2-[4-(2-hydroxyethoxy)pyridin-2-yl]-5,5-dimethyl-5H,6H,7H-cyclopenta[d]pyrimidin-4-yl}(methyl)amino)-N-(6-methoxypyridin-3-yl)acetamide], the pEC50 came out at 8.3.

`CN(CC(=O)NC(C)(C)C)c1nc(-c2c[nH]cn2)nc2c1CCC2` [Compound 182, N-tert-butyl-2-{[2-(1H-imidazol-4-yl)-5H,6H,7H-cyclopenta[d]pyrimidin-4-yl](methyl)amino}acetamide] had a pEC50 of 7.6.

Consider `CC(C)(O)COc1ccnc(-c2nc3c(c(NCC(=O)NC(C)(C)C)n2)CCC3)c1` [Compound 409, N-tert-butyl-2-({2-[4-(2-hydroxy-2-methylpropoxy)pyridin-2-yl]-5H,6H,7H-cyclopenta[d]pyrimidin-4-yl}amino)acetamide], for which the negative-log EC50 (pEC50) is given as 7.6.

On to `CN(CC(=O)NC(C)(C)C)c1nc(-c2cc(OC[C@@H]3CCCN3C)ccn2)nc2c1CCC2` [Compound 412, N-tert-butyl-2-{methyl[2-(4-{[(2S)-1-methylpyrrolidin-2-yl]methoxy}pyridin-2-yl)-5H,6H,7H-cyclopenta[d]pyrimidin-4-yl]amino}acetamide], for which the negative logarithm of the EC50 (pEC50) worked out at 8.1.

`CN(CC(=O)NC1(C)CCCC1)c1nc(-c2cn(C)cn2)nc2c1CCC2` [Compound 161, 2-{methyl[2-(1-methyl-1H-imidazol-4-yl)-5H,6H,7H-cyclopenta[d]pyrimidin-4-yl]amino}-N-(1-methylcyclopentyl)acetamide] showed a pEC50 of 7.4.

For `COc1cnc(-c2nc3c(c(N(C)CC(=O)NC(C)(C)C)n2)CCC3)cc1OC` [Compound 145, N-tert-butyl-2-{[2-(4,5-dimethoxypyridin-2-yl)-5H,6H,7H-cyclopenta[d]pyrimidin-4-yl](methyl)amino}acetamide], the pEC50 turned out to be 6.9.

In turn, `COc1ccnc(-c2nc3c(c(N(C)CC(=O)NC4COC4)n2)CCC3)c1` [Compound 373, 2-{[2-(4-methoxypyridin-2-yl)-5H,6H,7H-cyclopenta[d]pyrimidin-4-yl](methyl)amino}-N-(oxetan-3-yl)acetamide] displayed a pEC50 of 7.3.

As to `CN(CC(=O)NC(C)(C)C)c1nc(-c2cc(OC[C@H](O)CF)ccn2)nc2c1CCC2` [Compound 452, N-tert-butyl-2-[(2-{4-[(2S)-3-fluoro-2-hydroxypropoxy]pyridin-2-yl}-5H,6H,7H-cyclopenta[d]pyrimidin-4-yl)(methyl)amino]acetamide], the negative logarithm of the EC50 (pEC50) is given as 8.4.

On to `CN(CC(=O)NC1CCCCC1)c1nc(-c2ccccn2)nc2c1CCC2` [Compound 78, N-cyclohexyl-2-{methyl[2-(pyridin-2-yl)-5H,6H,7H-cyclopenta[d]pyrimidin-4-yl]amino}acetamide], for which the negative-log EC50 (pEC50) is on record as 7.4.
